Experimental data as given in ChEMBL document CHEMBL1145498, “A systematic interaction map of validated kinase inhibitors with Ser/Thr kinases” (Proc Natl Acad Sci U S A, 2007).

Biological target: Cyclin-dependent kinase 6 (Homo sapiens) (UniProt Q00534)
Sequence (Q00534 whole entry): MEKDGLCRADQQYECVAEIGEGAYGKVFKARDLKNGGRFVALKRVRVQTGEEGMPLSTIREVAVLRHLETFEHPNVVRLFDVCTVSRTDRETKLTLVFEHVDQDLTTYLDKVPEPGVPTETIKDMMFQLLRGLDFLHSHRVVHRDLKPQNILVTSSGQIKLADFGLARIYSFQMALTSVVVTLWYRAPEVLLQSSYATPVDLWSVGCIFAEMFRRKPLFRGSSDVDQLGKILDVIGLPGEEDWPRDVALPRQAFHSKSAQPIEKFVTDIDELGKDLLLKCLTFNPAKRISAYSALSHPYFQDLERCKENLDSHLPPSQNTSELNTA

| ΔTm | Structure (SMILES) |
| --- | --- |
| -0.3 °C | CC(C)(C)n1nc(-c2cccc3ccccc23)c2c(N)ncnc21 |
| -0.4 °C | O=c1c2ccccc2[nH]c(=S)n1CCN1CCC(=C(c2ccc(F)cc2)c2ccc(F)cc2)CC1 [DIACYLGLYCEROL KINASE INHIBITOR II] |

| Structure (SMILES) | ΔTm |
| --- | --- |
| N=C(N)NCCNS(=O)(=O)c1cccc2cnccc12 | 0 °C |

Biological target: Mitogen-activated protein kinase 11 (Homo sapiens, UniProt Q15759)
Sequence (Q15759 whole entry): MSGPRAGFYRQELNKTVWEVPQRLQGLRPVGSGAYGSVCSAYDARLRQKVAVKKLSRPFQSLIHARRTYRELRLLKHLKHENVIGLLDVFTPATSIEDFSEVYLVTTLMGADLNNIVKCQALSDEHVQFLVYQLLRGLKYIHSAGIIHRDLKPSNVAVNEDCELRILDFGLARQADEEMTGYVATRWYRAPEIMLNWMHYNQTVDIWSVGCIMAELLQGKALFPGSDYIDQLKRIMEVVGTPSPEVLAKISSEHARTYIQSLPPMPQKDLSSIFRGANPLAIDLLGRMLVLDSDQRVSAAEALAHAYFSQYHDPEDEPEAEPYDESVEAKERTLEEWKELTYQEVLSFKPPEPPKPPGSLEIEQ

| ΔTm | Structure (SMILES) |
| --- | --- |
| 2.9 °C | CC(C)(C)n1nc(-c2cccc3ccccc23)c2c(N)ncnc21 |
| 1.2 °C | O=c1c2ccccc2[nH]c(=S)n1CCN1CCC(=C(c2ccc(F)cc2)c2ccc(F)cc2)CC1 [DIACYLGLYCEROL KINASE INHIBITOR II] |

| Structure (SMILES) | ΔTm |
| --- | --- |
| N=C(N)NCCNS(=O)(=O)c1cccc2cnccc12 | -0.3 °C |

Biological target: Serine/threonine-protein kinase 26 (Homo sapiens) (UniProt Q9P289)
Sequence (Q9P289 2-416 limits assumed): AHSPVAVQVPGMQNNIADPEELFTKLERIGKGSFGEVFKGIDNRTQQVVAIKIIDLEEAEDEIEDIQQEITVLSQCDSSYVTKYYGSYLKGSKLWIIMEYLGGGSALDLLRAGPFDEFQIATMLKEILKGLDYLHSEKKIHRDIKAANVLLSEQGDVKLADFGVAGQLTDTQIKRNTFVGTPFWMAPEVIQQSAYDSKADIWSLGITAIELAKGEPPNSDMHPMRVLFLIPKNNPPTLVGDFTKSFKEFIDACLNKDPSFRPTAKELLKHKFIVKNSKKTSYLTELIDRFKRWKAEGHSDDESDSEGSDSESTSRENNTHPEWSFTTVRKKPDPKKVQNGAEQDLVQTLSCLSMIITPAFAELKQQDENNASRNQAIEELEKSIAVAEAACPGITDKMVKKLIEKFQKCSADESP

| ΔTm | Structure (SMILES) |
| --- | --- |
| 1.1 °C | CC(C)(C)n1nc(-c2cccc3ccccc23)c2c(N)ncnc21 |
| 2.1 °C | O=c1c2ccccc2[nH]c(=S)n1CCN1CCC(=C(c2ccc(F)cc2)c2ccc(F)cc2)CC1 [DIACYLGLYCEROL KINASE INHIBITOR II] |

| Structure (SMILES) | ΔTm |
| --- | --- |
| N=C(N)NCCNS(=O)(=O)c1cccc2cnccc12 | 0.1 °C |

Biological target: Glycogen synthase kinase-3 beta (Homo sapiens, UniProt P49841)
Sequence (P49841 whole entry, looked up): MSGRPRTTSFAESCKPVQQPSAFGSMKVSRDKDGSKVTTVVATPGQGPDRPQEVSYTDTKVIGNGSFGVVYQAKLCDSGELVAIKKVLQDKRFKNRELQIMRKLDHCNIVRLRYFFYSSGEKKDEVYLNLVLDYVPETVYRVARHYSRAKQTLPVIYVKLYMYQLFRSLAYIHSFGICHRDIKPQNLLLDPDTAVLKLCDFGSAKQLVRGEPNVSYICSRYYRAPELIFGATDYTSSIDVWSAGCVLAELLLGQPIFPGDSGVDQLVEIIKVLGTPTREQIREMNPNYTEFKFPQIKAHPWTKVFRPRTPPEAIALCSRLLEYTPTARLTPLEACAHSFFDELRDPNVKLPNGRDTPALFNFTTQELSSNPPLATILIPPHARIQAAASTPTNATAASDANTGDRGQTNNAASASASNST

| ΔTm | Structure (SMILES) |
| --- | --- |
| 0.1 °C | CC(C)(C)n1nc(-c2cccc3ccccc23)c2c(N)ncnc21 |
| 1.9 °C | O=c1c2ccccc2[nH]c(=S)n1CCN1CCC(=C(c2ccc(F)cc2)c2ccc(F)cc2)CC1 [DIACYLGLYCEROL KINASE INHIBITOR II] |

| Structure (SMILES) | ΔTm |
| --- | --- |
| N=C(N)NCCNS(=O)(=O)c1cccc2cnccc12 | 0.4 °C |

Biological target: Cyclin-dependent kinase-like 1 (Homo sapiens) (UniProt Q00532)
Sequence (Q00532 whole entry): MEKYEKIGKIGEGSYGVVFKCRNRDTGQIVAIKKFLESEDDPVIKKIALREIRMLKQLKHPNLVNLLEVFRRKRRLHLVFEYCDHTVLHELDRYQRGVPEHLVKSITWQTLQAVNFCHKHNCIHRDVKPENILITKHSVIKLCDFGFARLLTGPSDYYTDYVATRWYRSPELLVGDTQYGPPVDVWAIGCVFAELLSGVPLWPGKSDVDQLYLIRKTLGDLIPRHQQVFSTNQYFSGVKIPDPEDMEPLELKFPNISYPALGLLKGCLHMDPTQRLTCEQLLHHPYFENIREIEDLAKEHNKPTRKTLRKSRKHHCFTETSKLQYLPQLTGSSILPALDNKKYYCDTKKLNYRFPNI

| ΔTm | Structure (SMILES) |
| --- | --- |
| -0.5 °C | CC(C)(C)n1nc(-c2cccc3ccccc23)c2c(N)ncnc21 |
| -0.5 °C | O=c1c2ccccc2[nH]c(=S)n1CCN1CCC(=C(c2ccc(F)cc2)c2ccc(F)cc2)CC1 [DIACYLGLYCEROL KINASE INHIBITOR II] |

| Structure (SMILES) | ΔTm |
| --- | --- |
| N=C(N)NCCNS(=O)(=O)c1cccc2cnccc12 | 0 °C |

Biological target: T1, 3-phosphoinositide-dependent protein kinase 1 (Homo sapiens) (UniProt O15530)
T1 sequence (whole entry): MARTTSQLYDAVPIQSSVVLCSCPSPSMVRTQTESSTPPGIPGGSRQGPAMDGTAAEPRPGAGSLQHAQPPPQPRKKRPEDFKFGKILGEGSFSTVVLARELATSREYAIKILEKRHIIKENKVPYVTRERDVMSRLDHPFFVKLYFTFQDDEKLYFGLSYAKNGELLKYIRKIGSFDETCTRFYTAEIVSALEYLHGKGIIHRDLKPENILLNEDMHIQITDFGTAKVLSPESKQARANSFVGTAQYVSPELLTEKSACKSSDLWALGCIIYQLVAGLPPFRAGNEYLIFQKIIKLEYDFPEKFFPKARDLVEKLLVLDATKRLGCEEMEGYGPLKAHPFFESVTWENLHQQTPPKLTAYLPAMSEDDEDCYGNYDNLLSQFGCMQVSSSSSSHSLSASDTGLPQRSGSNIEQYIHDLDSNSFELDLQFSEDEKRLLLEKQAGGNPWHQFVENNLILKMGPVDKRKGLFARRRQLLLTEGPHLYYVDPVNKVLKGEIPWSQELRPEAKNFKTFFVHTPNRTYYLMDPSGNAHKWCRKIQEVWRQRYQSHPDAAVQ

| ΔTm | Structure (SMILES) |
| --- | --- |
| -0.4 °C | CC(C)(C)n1nc(-c2cccc3ccccc23)c2c(N)ncnc21 |
| 0.6 °C | O=c1c2ccccc2[nH]c(=S)n1CCN1CCC(=C(c2ccc(F)cc2)c2ccc(F)cc2)CC1 [DIACYLGLYCEROL KINASE INHIBITOR II] |

| Structure (SMILES) | ΔTm |
| --- | --- |
| N=C(N)NCCNS(=O)(=O)c1cccc2cnccc12 | -0.3 °C |

Biological target: Calcium/calmodulin-dependent protein kinase type 1D (Homo sapiens) (UniProt Q8IU85)
Sequence (Q8IU85 whole entry, looked up): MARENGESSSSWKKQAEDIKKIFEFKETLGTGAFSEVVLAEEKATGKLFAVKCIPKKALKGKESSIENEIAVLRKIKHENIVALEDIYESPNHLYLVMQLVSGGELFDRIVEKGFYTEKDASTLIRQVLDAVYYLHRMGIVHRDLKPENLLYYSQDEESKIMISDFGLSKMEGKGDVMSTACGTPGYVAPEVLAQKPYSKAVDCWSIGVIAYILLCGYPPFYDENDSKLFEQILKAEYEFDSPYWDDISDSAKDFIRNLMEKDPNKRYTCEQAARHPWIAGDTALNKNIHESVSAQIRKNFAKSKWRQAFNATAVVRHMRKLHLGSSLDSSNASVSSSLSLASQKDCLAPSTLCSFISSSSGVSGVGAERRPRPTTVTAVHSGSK

| ΔTm | Structure (SMILES) |
| --- | --- |
| -0.3 °C | CC(C)(C)n1nc(-c2cccc3ccccc23)c2c(N)ncnc21 |
| 0.8 °C | O=c1c2ccccc2[nH]c(=S)n1CCN1CCC(=C(c2ccc(F)cc2)c2ccc(F)cc2)CC1 [DIACYLGLYCEROL KINASE INHIBITOR II] |

| Structure (SMILES) | ΔTm |
| --- | --- |
| N=C(N)NCCNS(=O)(=O)c1cccc2cnccc12 | 0 °C |

Biological target: Ribosomal protein S6 kinase alpha-3 (Homo sapiens) (UniProt P51812)

| ΔTm | Structure (SMILES) |
| --- | --- |
| 0.3 °C | CC(C)(C)n1nc(-c2cccc3ccccc23)c2c(N)ncnc21 |
| 0.3 °C | O=c1c2ccccc2[nH]c(=S)n1CCN1CCC(=C(c2ccc(F)cc2)c2ccc(F)cc2)CC1 [DIACYLGLYCEROL KINASE INHIBITOR II] |

| Structure (SMILES) | ΔTm |
| --- | --- |
| N=C(N)NCCNS(=O)(=O)c1cccc2cnccc12 | 0.6 °C |

Biological target: Dual specificity protein kinase CLK1 (Homo sapiens) (UniProt P49759)

| ΔTm | Structure (SMILES) |
| --- | --- |
| 1.1 °C | CC(C)(C)n1nc(-c2cccc3ccccc23)c2c(N)ncnc21 |
| 0.3 °C | O=c1c2ccccc2[nH]c(=S)n1CCN1CCC(=C(c2ccc(F)cc2)c2ccc(F)cc2)CC1 [DIACYLGLYCEROL KINASE INHIBITOR II] |

| Structure (SMILES) | ΔTm |
| --- | --- |
| N=C(N)NCCNS(=O)(=O)c1cccc2cnccc12 | 0.7 °C |

Biological target: T2, Serine/threonine-protein kinase Nek2 (Homo sapiens) (UniProt P51955)
T2 sequence (whole entry): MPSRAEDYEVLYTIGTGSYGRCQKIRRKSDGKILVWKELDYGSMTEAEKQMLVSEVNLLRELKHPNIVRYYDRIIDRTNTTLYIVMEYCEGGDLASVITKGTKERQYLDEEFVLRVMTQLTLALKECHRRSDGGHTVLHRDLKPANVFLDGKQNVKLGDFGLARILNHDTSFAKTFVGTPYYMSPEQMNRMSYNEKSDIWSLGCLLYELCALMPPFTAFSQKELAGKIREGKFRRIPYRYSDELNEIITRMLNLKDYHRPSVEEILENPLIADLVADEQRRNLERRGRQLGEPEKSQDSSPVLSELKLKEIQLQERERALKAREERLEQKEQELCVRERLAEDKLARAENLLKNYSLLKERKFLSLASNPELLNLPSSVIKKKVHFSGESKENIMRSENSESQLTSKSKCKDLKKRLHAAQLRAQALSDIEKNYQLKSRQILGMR

| ΔTm | Structure (SMILES) |
| --- | --- |
| -0.2 °C | CC(C)(C)n1nc(-c2cccc3ccccc23)c2c(N)ncnc21 |
| 1.5 °C | O=c1c2ccccc2[nH]c(=S)n1CCN1CCC(=C(c2ccc(F)cc2)c2ccc(F)cc2)CC1 [DIACYLGLYCEROL KINASE INHIBITOR II] |

| Structure (SMILES) | ΔTm |
| --- | --- |
| N=C(N)NCCNS(=O)(=O)c1cccc2cnccc12 | 0.5 °C |

Biological target: Serine/threonine-protein kinase PAK 5 (Homo sapiens) (UniProt Q9P286)
Sequence (Q9P286 whole entry, looked up): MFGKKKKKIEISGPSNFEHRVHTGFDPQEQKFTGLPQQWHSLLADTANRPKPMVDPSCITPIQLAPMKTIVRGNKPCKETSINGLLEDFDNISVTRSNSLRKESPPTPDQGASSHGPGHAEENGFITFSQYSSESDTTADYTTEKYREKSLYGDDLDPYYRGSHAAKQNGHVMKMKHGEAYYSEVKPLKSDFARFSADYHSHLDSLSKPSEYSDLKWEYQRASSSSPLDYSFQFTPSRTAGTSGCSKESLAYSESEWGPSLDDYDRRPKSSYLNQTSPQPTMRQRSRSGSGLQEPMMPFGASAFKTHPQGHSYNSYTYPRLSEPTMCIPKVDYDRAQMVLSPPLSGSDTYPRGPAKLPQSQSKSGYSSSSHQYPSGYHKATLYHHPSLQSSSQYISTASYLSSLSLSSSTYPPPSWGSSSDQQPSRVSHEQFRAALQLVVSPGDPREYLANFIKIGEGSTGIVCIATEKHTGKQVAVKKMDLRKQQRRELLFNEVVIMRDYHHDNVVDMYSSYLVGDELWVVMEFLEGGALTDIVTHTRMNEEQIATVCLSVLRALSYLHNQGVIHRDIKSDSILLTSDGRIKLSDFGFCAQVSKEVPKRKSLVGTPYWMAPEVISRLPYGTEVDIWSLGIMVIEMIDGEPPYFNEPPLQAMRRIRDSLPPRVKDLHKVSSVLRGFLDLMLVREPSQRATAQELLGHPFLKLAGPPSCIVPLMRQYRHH

| ΔTm | Structure (SMILES) |
| --- | --- |
| 1 °C | CC(C)(C)n1nc(-c2cccc3ccccc23)c2c(N)ncnc21 |
| -0.2 °C | O=c1c2ccccc2[nH]c(=S)n1CCN1CCC(=C(c2ccc(F)cc2)c2ccc(F)cc2)CC1 [DIACYLGLYCEROL KINASE INHIBITOR II] |

| Structure (SMILES) | ΔTm |
| --- | --- |
| N=C(N)NCCNS(=O)(=O)c1cccc2cnccc12 | 0.4 °C |

Biological target: Serine/threonine-protein kinase 25 (Homo sapiens) (UniProt O00506)
Sequence (O00506 whole entry, looked up): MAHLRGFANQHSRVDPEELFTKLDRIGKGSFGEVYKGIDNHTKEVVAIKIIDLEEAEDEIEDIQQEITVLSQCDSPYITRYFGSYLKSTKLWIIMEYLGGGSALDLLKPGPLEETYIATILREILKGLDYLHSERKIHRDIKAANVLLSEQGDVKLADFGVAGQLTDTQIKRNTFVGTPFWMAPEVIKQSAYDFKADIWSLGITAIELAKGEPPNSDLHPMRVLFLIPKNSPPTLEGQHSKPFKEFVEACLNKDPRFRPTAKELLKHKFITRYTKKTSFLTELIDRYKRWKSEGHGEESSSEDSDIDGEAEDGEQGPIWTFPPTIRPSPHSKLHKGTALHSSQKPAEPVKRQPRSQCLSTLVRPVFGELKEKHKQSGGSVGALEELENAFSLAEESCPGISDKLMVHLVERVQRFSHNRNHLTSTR

| ΔTm | Structure (SMILES) |
| --- | --- |
| 1.3 °C | CC(C)(C)n1nc(-c2cccc3ccccc23)c2c(N)ncnc21 |
| 1.5 °C | O=c1c2ccccc2[nH]c(=S)n1CCN1CCC(=C(c2ccc(F)cc2)c2ccc(F)cc2)CC1 [DIACYLGLYCEROL KINASE INHIBITOR II] |

| Structure (SMILES) | ΔTm |
| --- | --- |
| N=C(N)NCCNS(=O)(=O)c1cccc2cnccc12 | -0.4 °C |

Biological target: Serine/threonine-protein kinase Chk2 (Homo sapiens, UniProt O96017)

| ΔTm | Structure (SMILES) |
| --- | --- |
| 0.3 °C | CC(C)(C)n1nc(-c2cccc3ccccc23)c2c(N)ncnc21 |
| 1.6 °C | O=c1c2ccccc2[nH]c(=S)n1CCN1CCC(=C(c2ccc(F)cc2)c2ccc(F)cc2)CC1 [DIACYLGLYCEROL KINASE INHIBITOR II] |

| Structure (SMILES) | ΔTm |
| --- | --- |
| N=C(N)NCCNS(=O)(=O)c1cccc2cnccc12 | 0.2 °C |

Biological target: Serine/threonine-protein kinase pim-1 (Homo sapiens) (UniProt P11309)
Sequence (P11309 whole entry, looked up): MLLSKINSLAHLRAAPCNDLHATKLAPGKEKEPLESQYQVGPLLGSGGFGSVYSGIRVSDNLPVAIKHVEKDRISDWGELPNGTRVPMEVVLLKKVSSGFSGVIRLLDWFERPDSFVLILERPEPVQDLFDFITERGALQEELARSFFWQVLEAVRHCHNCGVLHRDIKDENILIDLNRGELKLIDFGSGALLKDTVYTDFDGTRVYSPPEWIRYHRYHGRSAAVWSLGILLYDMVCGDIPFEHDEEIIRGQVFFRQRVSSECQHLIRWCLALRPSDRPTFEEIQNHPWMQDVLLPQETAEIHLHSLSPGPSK

| ΔTm | Structure (SMILES) |
| --- | --- |
| -0.2 °C | CC(C)(C)n1nc(-c2cccc3ccccc23)c2c(N)ncnc21 |
| 0 °C | O=c1c2ccccc2[nH]c(=S)n1CCN1CCC(=C(c2ccc(F)cc2)c2ccc(F)cc2)CC1 [DIACYLGLYCEROL KINASE INHIBITOR II] |

| Structure (SMILES) | ΔTm |
| --- | --- |
| N=C(N)NCCNS(=O)(=O)c1cccc2cnccc12 | -0.4 °C |

Biological target: T3, Serine/threonine-protein kinase PLK4 (Homo sapiens) (UniProt O00444)
T3 sequence (whole entry): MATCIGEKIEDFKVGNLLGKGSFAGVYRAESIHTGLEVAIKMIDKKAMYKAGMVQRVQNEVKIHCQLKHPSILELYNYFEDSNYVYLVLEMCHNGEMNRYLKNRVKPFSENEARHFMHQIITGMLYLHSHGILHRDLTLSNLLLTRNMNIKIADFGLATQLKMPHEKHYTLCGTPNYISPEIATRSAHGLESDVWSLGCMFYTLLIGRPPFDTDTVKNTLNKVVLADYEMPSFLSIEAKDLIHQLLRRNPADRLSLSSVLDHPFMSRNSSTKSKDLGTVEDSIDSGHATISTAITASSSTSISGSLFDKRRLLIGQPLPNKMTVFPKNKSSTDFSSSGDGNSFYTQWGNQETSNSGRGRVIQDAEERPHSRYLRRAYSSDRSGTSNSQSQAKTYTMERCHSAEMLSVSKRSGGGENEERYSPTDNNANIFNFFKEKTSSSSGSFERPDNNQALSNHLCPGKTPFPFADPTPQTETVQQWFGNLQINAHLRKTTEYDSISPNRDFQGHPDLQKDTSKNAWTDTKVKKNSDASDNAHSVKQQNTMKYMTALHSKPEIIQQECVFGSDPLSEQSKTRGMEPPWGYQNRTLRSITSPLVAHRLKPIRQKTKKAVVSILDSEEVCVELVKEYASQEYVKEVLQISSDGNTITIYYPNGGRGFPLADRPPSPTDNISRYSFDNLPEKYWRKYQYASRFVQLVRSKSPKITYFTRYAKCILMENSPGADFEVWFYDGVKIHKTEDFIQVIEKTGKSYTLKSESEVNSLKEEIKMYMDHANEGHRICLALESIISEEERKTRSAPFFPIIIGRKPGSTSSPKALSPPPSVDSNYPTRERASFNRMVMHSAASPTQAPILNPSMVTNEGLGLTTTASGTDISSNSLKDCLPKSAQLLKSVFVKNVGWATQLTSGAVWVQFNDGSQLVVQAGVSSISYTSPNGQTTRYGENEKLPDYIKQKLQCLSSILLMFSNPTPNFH

| ΔTm | Structure (SMILES) |
| --- | --- |
| 1.1 °C | CC(C)(C)n1nc(-c2cccc3ccccc23)c2c(N)ncnc21 |
| 0.8 °C | O=c1c2ccccc2[nH]c(=S)n1CCN1CCC(=C(c2ccc(F)cc2)c2ccc(F)cc2)CC1 [DIACYLGLYCEROL KINASE INHIBITOR II] |

| Structure (SMILES) | ΔTm |
| --- | --- |
| N=C(N)NCCNS(=O)(=O)c1cccc2cnccc12 | 0.1 °C |

Biological target: STE20-like serine/threonine-protein kinase (Homo sapiens) (UniProt Q9H2G2)
Sequence (Q9H2G2 whole entry, looked up): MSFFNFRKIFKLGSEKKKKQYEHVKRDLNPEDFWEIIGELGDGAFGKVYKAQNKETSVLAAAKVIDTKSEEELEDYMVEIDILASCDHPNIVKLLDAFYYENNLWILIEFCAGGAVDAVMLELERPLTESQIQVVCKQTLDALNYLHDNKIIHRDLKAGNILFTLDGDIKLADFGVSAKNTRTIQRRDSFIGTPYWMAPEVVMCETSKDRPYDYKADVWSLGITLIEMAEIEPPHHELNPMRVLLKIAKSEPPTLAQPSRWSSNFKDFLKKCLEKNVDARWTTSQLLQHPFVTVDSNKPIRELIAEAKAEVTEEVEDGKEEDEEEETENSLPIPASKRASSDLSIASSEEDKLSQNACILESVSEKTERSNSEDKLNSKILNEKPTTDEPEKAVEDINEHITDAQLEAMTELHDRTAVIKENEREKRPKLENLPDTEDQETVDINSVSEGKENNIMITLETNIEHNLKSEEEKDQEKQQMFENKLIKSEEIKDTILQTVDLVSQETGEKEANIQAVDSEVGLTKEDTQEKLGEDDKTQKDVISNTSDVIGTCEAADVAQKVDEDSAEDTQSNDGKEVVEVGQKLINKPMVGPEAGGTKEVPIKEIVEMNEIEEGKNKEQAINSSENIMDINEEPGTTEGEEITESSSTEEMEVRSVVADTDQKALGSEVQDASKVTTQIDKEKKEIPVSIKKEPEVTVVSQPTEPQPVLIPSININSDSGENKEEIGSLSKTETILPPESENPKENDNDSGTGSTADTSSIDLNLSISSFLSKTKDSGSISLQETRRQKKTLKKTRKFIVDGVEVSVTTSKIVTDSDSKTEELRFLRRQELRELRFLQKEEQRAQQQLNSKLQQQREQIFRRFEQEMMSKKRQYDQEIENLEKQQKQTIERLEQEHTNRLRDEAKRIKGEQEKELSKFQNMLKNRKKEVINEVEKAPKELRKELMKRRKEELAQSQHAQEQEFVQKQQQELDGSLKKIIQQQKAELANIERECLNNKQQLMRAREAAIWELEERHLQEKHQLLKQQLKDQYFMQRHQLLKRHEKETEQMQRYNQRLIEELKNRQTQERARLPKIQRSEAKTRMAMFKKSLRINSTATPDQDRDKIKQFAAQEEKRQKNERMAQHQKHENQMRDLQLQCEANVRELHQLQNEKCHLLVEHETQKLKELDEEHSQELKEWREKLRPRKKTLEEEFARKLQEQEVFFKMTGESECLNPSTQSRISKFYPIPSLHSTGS

| ΔTm | Structure (SMILES) |
| --- | --- |
| 6.1 °C | CC(C)(C)n1nc(-c2cccc3ccccc23)c2c(N)ncnc21 |
| 2.3 °C | O=c1c2ccccc2[nH]c(=S)n1CCN1CCC(=C(c2ccc(F)cc2)c2ccc(F)cc2)CC1 [DIACYLGLYCEROL KINASE INHIBITOR II] |

| Structure (SMILES) | ΔTm |
| --- | --- |
| N=C(N)NCCNS(=O)(=O)c1cccc2cnccc12 | 0.3 °C |
